From patent publication US20240343754A1, “7-SUBSTITUTED 7-DEAZAADENINE-CONTAINING 2',3'-CYCLIC DINUCLEOTIDES” (USTAV ORGANICKE CHEMIE A BIOCHEMIE AV CR, V. V. I., priority 2021, published 2024)
Where two headings read alike, the source gives them in different places.

Columns and labels:
[1] = system: Peripheral blood mononuclear cells (PBMC); assay: PBMC assay: induction of cytokines INFα and INFγ; type: cell-based; conditions: Homo sapiens, PBMCs, 16 h incubation, mean from three different PBMC donors
[2] = Cytotoxic effect on PBMCs (CellTiter-Glo Luminescent Cell Viability Assay); type: cell-based; conditions: human, 16 h incubation, mean from three different PBMC donors
Description: Briefly, buffy coats were obtained from the Institute of Hematology and Blood Transfusion (Prague, Czech Republic). Informed written consent was signed by each volunteer. Isolation of PBMCs was performed on Ficoll density gradient centrifugation (Ficoll Paque Plus, GE Healthcare, USA) in SepMate tubes (SepMate PBMC Isolation Tubes, Stemcell Technologies, Canada). Obtained PBMCs were washed using PBS with 2 mM EDTA, and then seeded onto 96-well U-shape plates at density 500,000 cells per well in RPMI 1640 media with 10% (v/v) heat inactivated FBS. Serially diluted CDNs were added to cells and cells were incubated for 16 h (37° C., 5% CO2). After incubation, medium was collected to determine levels of INFα and INFγ using ProcartaPlex Assays and MAGPIX System (Merck, Germany) according to the manufacturer's instructions. Cytotoxic effect of CDNs on PBMCs was determined using CellTiter-Glo® Luminescent Cell Viability Assay (Promega Corporation, USA) according to manufacturer's instruction.

wt hSTING = wt hSTING (Homo sapiens, UniProt Q86WV6); assay: Standard 293T reporter cell-based assay (IRF-3 dependent firefly luciferase reporter)
Description: Briefly, the day before testing cells were seeded onto 96-well white plates at density 250,000 cells per cm^2 in DMEM High glucose medium supplemented with 10% (v/v) heat inactivated fetal bovine albumin (FBS). The next day medium was removed, and cell were incubated for 7 h (37° C., 5% CO2) with serial dilution of compounds in medium. After incubation, Bright-Glo Luciferase Assay System reagent was added to cells and luminescence readout was performed on SPARK instrument (Tecan, Austria). EC50 values were determined using in software Prism (GraphPad, USA).

[3] = read-out: PBMC assay EC50 INF α
[4] = read-out: PBMC assay EC50 INF γ
[5] = read-out: Standard assay EC50, 293T reporter cells expressing wt hSTING, 7 h incubation, mean of three independent experiments in triplicates, SD <50%

wt hSTING, sequence (Q86WV6 whole entry H232R): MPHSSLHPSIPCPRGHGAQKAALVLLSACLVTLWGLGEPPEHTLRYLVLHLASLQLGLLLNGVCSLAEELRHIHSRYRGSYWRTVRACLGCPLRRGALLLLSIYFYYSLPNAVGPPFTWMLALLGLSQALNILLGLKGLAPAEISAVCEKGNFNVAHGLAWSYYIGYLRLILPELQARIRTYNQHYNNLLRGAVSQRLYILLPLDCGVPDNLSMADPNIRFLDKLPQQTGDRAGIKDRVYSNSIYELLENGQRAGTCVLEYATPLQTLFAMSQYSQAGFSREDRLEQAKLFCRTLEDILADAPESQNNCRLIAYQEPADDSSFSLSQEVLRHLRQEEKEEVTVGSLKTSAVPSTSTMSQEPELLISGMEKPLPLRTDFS

| SMILES | EC50 [1, 3] | EC50 [1, 4] | CC50 at 16 h [2] | EC50 (wt hSTING; [5]) | EC50 (wt hSTING) |
| --- | --- | --- | --- | --- | --- |
| Cc1cn([C@@H]2O[C@@H]3COP(=O)(O)O[C@@H]4[C@H](O)[C@@H](COP(=O)(O)O[C@H]3[C@H]2O)O[C@H]4n2cnc3c(=O)[nH]c(N)nc32)c2ncnc(N)c12 [Compound 1a, 2-amino-9-((5R,7R,8R,12aR,14R,15R,15aS,16R)-14-(4-amino-5-methyl-7H-pyrrolo[2,3-d]pyrimidin-7-yl)-2,10,15,16-tetrahydroxy-2,10-dioxidooctahydro-12H-5,8-methanofuro[3,2-l][1,3,6,9,11]pentaoxa[2,10]diphosphacyclotetradecin-7-yl)-1,9-dihydro-6H-purin-6-one] | 30.6 µM | 7.8 µM | > 200 µM |  |  |
| Nc1nc2c(ncn2[C@@H]2O[C@@H]3COP(=O)(O)O[C@H]4[C@@H](O)[C@H](n5cc(-c6ccccc6)c6c(N)ncnc65)O[C@@H]4COP(=O)(O)O[C@@H]2[C@@H]3O)c(=O)[nH]1 [Compound 1b, 2-amino-9-((5R,7R,8R,12aR,14R,15R,15aS,16R)-14-(4-amino-5-phenyl-7H-pyrrolo[2,3-d]pyrimidin-7-yl)-2,10,15,16-tetrahydroxy-2,10-dioxidooctahydro-12H-5,8-methanofuro[3,2-l][1,3,6,9,11]pentaoxa[2,10]diphosphacyclotetradecin-7-yl)-1,9-dihydro-6H-purin-6-one] |  |  | > 200 µM | 40.7 µM |  |
| Nc1nc2c(ncn2[C@@H]2O[C@@H]3COP(=O)(O)O[C@H]4[C@@H](O)[C@H](n5cc(-c6ccc7ccccc7c6)c6c(N)ncnc65)O[C@@H]4COP(=O)(O)O[C@@H]2[C@@H]3O)c(=O)[nH]1 [Compound 1c, 2-amino-9-((5R,7R,8R,12aR,14R,15R,15aS,16R)-14-(4-amino-5-(naphthalen-2-yl)-7H-pyrrolo[2,3-d]pyrimidin-7-yl)-2,10,15,16-tetrahydroxy-2,10-dioxidooctahydro-12H-5,8-methanofuro[3,2-l][1,3,6,9,11]pentaoxa[2,10]diphosphacyclotetradecin-7-yl)-1,9-dihydro-6H-purin-6-one] |  |  | > 200 µM | 7.63 µM |  |
| Nc1nc2c(ncn2[C@@H]2O[C@@H]3COP(=O)(O)O[C@H]4[C@@H](O)[C@H](n5cc(-c6cccc7ccccc67)c6c(N)ncnc65)O[C@@H]4COP(=O)(O)O[C@@H]2[C@@H]3O)c(=O)[nH]1 [Compound 1d, 2-amino-9-((5R,7R,8R,12aR,14R,15R,15aS,16R)-14-(4-amino-5-(naphthalen-1-yl)-7H-pyrrolo[2,3-d]pyrimidin-7-yl)-2,10,15,16-tetrahydroxy-2,10-dioxidooctahydro-12H-5,8-methanofuro[3,2-l][1,3,6,9,11]pentaoxa[2,10]diphosphacyclotetradecin-7-yl)-1,9-dihydro-6H-purin-6-one] |  |  | > 200 µM | 42.5 µM |  |
| Nc1nc2c(ncn2[C@@H]2O[C@@H]3COP(=O)(O)O[C@H]4[C@@H](O)[C@H](n5cc(-c6cc7ccccc7c7ccccc67)c6c(N)ncnc65)O[C@@H]4COP(=O)(O)O[C@@H]2[C@@H]3O)c(=O)[nH]1 [Compound 1e, 2-amino-9-((5R,7R,8R,12aR,14R,15R,15aS,16R)-14-(4-amino-5-(phenanthren-9-yl)-7H-pyrrolo[2,3-d]pyrimidin-7-yl)-2,10,15,16-tetrahydroxy-2,10-dioxidooctahydro-12H-5,8-methanofuro[3,2-l][1,3,6,9,11]pentaoxa[2,10]diphosphacyclotetradecin-7-yl)-1,9-dihydro-6H-purin-6-one] |  |  | > 200 µM | 65.5 µM |  |
| Nc1nc2c(ncn2[C@@H]2O[C@@H]3COP(=O)(O)O[C@H]4[C@@H](O)[C@H](n5cc(-c6ccc(-c7ccccc7)cc6)c6c(N)ncnc65)O[C@@H]4COP(=O)(O)O[C@@H]2[C@@H]3O)c(=O)[nH]1 [Compound 1f, 9-((5R,7R,8R,12aR,14R,15R,15aS,16R)-14-(5-([1,1′-biphenyl]-4-yl)-4-amino-7H-pyrrolo[2,3-d]pyrimidin-7-yl)-2,10,15,16-tetrahydroxy-2,10-dioxidooctahydro-12H-5,8-methanofuro[3,2-l][1,3,6,9,11]pentaoxa[2,10]diphosphacyclotetradecin-7-yl)-2-amino-1,9-dihydro-6H-purin-6-one] | 7.4 µM | 2 µM | > 200 µM | 2.95 µM |  |
| Nc1nc2c(ncn2[C@@H]2O[C@@H]3COP(=O)(O)O[C@H]4[C@@H](O)[C@H](n5cc(-c6ccc(-c7ccc8ccccc8c7)cc6)c6c(N)ncnc65)O[C@@H]4COP(=O)(O)O[C@@H]2[C@@H]3O)c(=O)[nH]1 [Compound 1g, 2-amino-9-((5R,7R,8R,12aR,14R,15R,15aS,16R)-14-(4-amino-5-(4-(naphthalen-2-yl)phenyl)-7H-pyrrolo[2,3-d]pyrimidin-7-yl)-2,10,15,16-tetrahydroxy-2,10-dioxidooctahydro-12H-5,8-methanofuro[3,2-l][1,3,6,9,11]pentaoxa[2,10]diphosphacyclotetradecin-7-yl)-1,9-dihydro-6H-purin-6-one] | 5.1 µM | 1.8 µM | > 200 µM | 3.06 µM |  |
| Nc1nc2c(ncn2[C@@H]2O[C@@H]3COP(=O)(O)O[C@H]4[C@@H](O)[C@H](n5cc(-c6ccco6)c6c(N)ncnc65)O[C@@H]4COP(=O)(O)O[C@@H]2[C@@H]3O)c(=O)[nH]1 [Compound 1i, 2-amino-9-((5R,7R,8R,12aR,14R,15R,15aS,16R)-14-(4-amino-5-(furan-2-yl)-7H-pyrrolo[2,3-d]pyrimidin-7-yl)-2,10,15,16-tetrahydroxy-2,10-dioxidooctahydro-12H-5,8-methanofuro[3,2-l][1,3,6,9,11]pentaoxa[2,10]diphosphacyclotetradecin-7-yl)-1,9-dihydro-6H-purin-6-one] | 2.8 µM | 2.24 µM | > 200 µM |  |  |
| Nc1nc2c(ncn2[C@@H]2O[C@@H]3COP(=O)(O)O[C@H]4[C@@H](O)[C@H](n5cc(-c6cccs6)c6c(N)ncnc65)O[C@@H]4COP(=O)(O)O[C@@H]2[C@@H]3O)c(=O)[nH]1 [Compound 1j, 2-amino-9-((5R,7R,8R,12aR,14R,15R,15aS,16R)-14-(4-amino-5-(thiophen-2-yl)-7H-pyrrolo[2,3-d]pyrimidin-7-yl)-2,10,15,16-tetrahydroxy-2,10-dioxidooctahydro-12H-5,8-methanofuro[3,2-l][1,3,6,9,11]pentaoxa[2,10]diphosphacyclotetradecin-7-yl)-1,9-dihydro-6H-purin-6-one] | 2.88 µM | 2.6 µM | > 200 µM |  |  |
| Nc1nc2c(ncn2[C@@H]2O[C@@H]3COP(=O)(O)O[C@H]4[C@@H](O)[C@H](n5cc(-c6cccc7c6oc6ccccc67)c6c(N)ncnc65)O[C@@H]4COP(=O)(O)O[C@@H]2[C@@H]3O)c(=O)[nH]1 [Compound 1m, 2-amino-9-((5R,7R,8R,12aR,14R,15R,15aS,16R)-14-(4-amino-5-(dibenzo[b,d]furan-4-yl)-7H-pyrrolo[2,3-d]pyrimidin-7-yl)-2,10,15,16-tetrahydroxy-2,10-dioxidooctahydro-12H-5,8-methanofuro[3,2-l][1,3,6,9,11]pentaoxa[2,10]diphosphacyclotetradecin-7-yl)-1,9-dihydro-6H-purin-6-one] |  |  | > 200 µM | 19.1 µM |  |
| Nc1nc2c(ncn2[C@@H]2O[C@@H]3COP(=O)(O)O[C@H]4[C@@H](O)[C@H](n5ccc6c(N)ncnc65)O[C@@H]4COP(=O)(O)O[C@@H]2[C@@H]3O)c(=O)[nH]1 [Compound 1n, 2-amino-9-((5R,7R,8R,12aR,14R,15R,15aS,16R)-14-(4-amino-7H-pyrrolo[2,3-d]pyrimidin-7-yl)-2,10,15,16-tetrahydroxy-2,10-dioxidooctahydro-12H-5,8-methanofuro[3,2-l][1,3,6,9,11]pentaoxa[2,10]diphosphacyclotetradecin-7-yl)-1,9-dihydro-6H-urin-6-one, reference compound] | 54.5 µM | 67.6 µM | > 200 µM |  |  |
| C#Cc1cn([C@@H]2O[C@@H]3COP(=O)(O)O[C@@H]4[C@H](O)[C@@H](OCP(=O)(O)O[C@H]3[C@H]2O)O[C@H]4n2cnc3c(=O)[nH]c(N)nc32)c2ncnc(N)c12 [Compound 53, 2-amino-9-((5R,7R,8R,12aR,14R,15R,15aS,16S)-14-(4-amino-5-ethynyl-7H-pyrrolo[2,3-d]pyrimidin-7-yl)-2,10,15,16-tetrahydroxy-2,10-dioxidooctahydro-5,8-methanofuro[3,2-l][1,3,6,8,11]pentaoxa[2,10]diphosphacyclotetradecin-7-yl)-1,9-dihydro-6H-purin-6-one, reference compound] |  |  |  |  | 109 µM |
